# In the oligonucleotide strings, read from the 5' end, every base follows the letter of its sugar. An asterisk marks phosphorothioate; unmarked linkages are phosphodiester. Other units and linkages are bracketed, terminal groups are in braces. A string of capitals states the bases alone. e = 2'-O-(2-methoxyethyl) (MOE); [5mC] = 5-methylcytosine; d = 2'-deoxy (DNA)
# Test system: human Factor XI mRNA
# Test: Antisense inhibition in HepG2 cells by microwalk gapmers, 75 nM, lipofectin (Example 3)
# Format: cell-based
# Details: HepG2 cells, 75 nM, oligonucleotides targeted to nucleobases 738 to 762 of SEQ ID NO: 1
# Summary of the method: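 HepG2 cells (10,000 per well) were transfected with 75 nM gapmer using lipofectin and treated for about 24 h. Factor XI mRNA was quantified by real-time PCR, normalized to RiboGreen total RNA and expressed as percent inhibition versus untreated controls.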
row,Substance,% inhibition of human Factor XI mRNA levels [%]
1,412206 (antisense e[5mC]*e[5mC]*eG*eT*eG*d[5mC]*dA*dT*d[5mC]*dT*dT*dT*d[5mC]*dT*dT*eG*eG*e[5mC]*eA*eT) [compound 412206],93

# Same assay, conditions: HepG2 cells, 75 nM, oligonucleotides targeted to nucleobases 1018 to 1042 of SEQ ID NO: 1
row,Substance,% inhibition of human Factor XI mRNA levels [%]
1,412212 (antisense e[5mC]*e[5mC]*eG*eG*eG*dA*dT*dG*dA*dT*dG*dA*dG*dT*dG*e[5mC]*eA*eG*eA*eT) [compound 412212],89

# Test system: human Factor XI mRNA
# Test: Dose-dependent antisense inhibition in HepG2 cells, lipofectin (Example 2)
# Format: cell-based
# Details: 9.375 nM, approximately 16 hours
# Protocol: Cells were plated at a density of 10,000 cells per well and transfected using lipofectin reagent with 9.375 nM, 18.75 nM, 37.5 nM, 75 nM, and 150 nM concentrations of antisense oligonucleotide, as specified in Table 3. After a treatment period of approximately 16 hours, RNA was isolated from the cells and Factor XI mRNA levels were measured by quantitative real-time PCR. Human Factor XI primer probe set RTS 2966 (forward sequence: […], incorporated herein as SEQ ID NO: 3; reverse sequence: […], incorporated herein as SEQ ID NO: 4; probe sequence: TTGTCTACTGAAGCACACCCAAACAGGGAX, wherein X is the fluorophore, incorporated herein as SEQ ID NO: 5) was used to measure mRNA levels. Factor XI mRNA levels were adjusted according to total RNA content, as measured by RIBOGREEN®. Results are presented as percent inhibition of Factor XI, relative to untreated control cells.
row,Substance,percent inhibition of Factor XI [%]
1,412212 (antisense e[5mC]*e[5mC]*eG*eG*eG*dA*dT*dG*dA*dT*dG*dA*dG*dT*dG*e[5mC]*eA*eG*eA*eT) [compound 412212],28
2,412206 (antisense e[5mC]*e[5mC]*eG*eT*eG*d[5mC]*dA*dT*d[5mC]*dT*dT*dT*d[5mC]*dT*dT*eG*eG*e[5mC]*eA*eT) [compound 412206],28

# Same assay, conditions: 18.75 nM, approximately 16 hours
row,Substance,percent inhibition of Factor XI [%]
1,412212 (antisense e[5mC]*e[5mC]*eG*eG*eG*dA*dT*dG*dA*dT*dG*dA*dG*dT*dG*e[5mC]*eA*eG*eA*eT) [compound 412212],45
2,412206 (antisense e[5mC]*e[5mC]*eG*eT*eG*d[5mC]*dA*dT*d[5mC]*dT*dT*dT*d[5mC]*dT*dT*eG*eG*e[5mC]*eA*eT) [compound 412206],44

# Same assay, conditions: 37.5 nM, approximately 16 hours
row,Substance,percent inhibition of Factor XI [%]
1,412212 (antisense e[5mC]*e[5mC]*eG*eG*eG*dA*dT*dG*dA*dT*dG*dA*dG*dT*dG*e[5mC]*eA*eG*eA*eT) [compound 412212],59
2,412206 (antisense e[5mC]*e[5mC]*eG*eT*eG*d[5mC]*dA*dT*d[5mC]*dT*dT*dT*d[5mC]*dT*dT*eG*eG*e[5mC]*eA*eT) [compound 412206],68

# Same assay, conditions: 75 nM, approximately 16 hours
row,Substance,percent inhibition of Factor XI [%]
1,412212 (antisense e[5mC]*e[5mC]*eG*eG*eG*dA*dT*dG*dA*dT*dG*dA*dG*dT*dG*e[5mC]*eA*eG*eA*eT) [compound 412212],73
2,412206 (antisense e[5mC]*e[5mC]*eG*eT*eG*d[5mC]*dA*dT*d[5mC]*dT*dT*dT*d[5mC]*dT*dT*eG*eG*e[5mC]*eA*eT) [compound 412206],80

# Same assay, conditions: 150 nM, approximately 16 hours
row,Substance,percent inhibition of Factor XI [%]
1,412212 (antisense e[5mC]*e[5mC]*eG*eG*eG*dA*dT*dG*dA*dT*dG*dA*dG*dT*dG*e[5mC]*eA*eG*eA*eT) [compound 412212],88
2,412206 (antisense e[5mC]*e[5mC]*eG*eT*eG*d[5mC]*dA*dT*d[5mC]*dT*dT*dT*d[5mC]*dT*dT*eG*eG*e[5mC]*eA*eT) [compound 412206],89

# Test system: human Factor XI mRNA
# Test: Dose-dependent inhibition in HepG2 cells, electroporation (Example 4)
# Format: cell-based
# Details: 0.7 μM, 16 hours
# Summary of the method: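 HepG2 cells electroporated with 0.7, 2.2, 6.7 or 20 μM antisense gapmer and harvested after ~16 h. Factor XI mRNA quantified by qRT-PCR (primer probe set RTS 2966), normalised to total RNA (RIBOGREEN). Reported as percent inhibition versus untreated control cells.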
row,Substance,"percent inhibition of Factor XI mRNA, relative to untreated control cells [%]"
1,412206 (antisense e[5mC]*e[5mC]*eG*eT*eG*d[5mC]*dA*dT*d[5mC]*dT*dT*dT*d[5mC]*dT*dT*eG*eG*e[5mC]*eA*eT) [compound 412206],22

# Same assay, conditions: 2.2 μM, 16 hours
row,Substance,"percent inhibition of Factor XI mRNA, relative to untreated control cells [%]"
1,412206 (antisense e[5mC]*e[5mC]*eG*eT*eG*d[5mC]*dA*dT*d[5mC]*dT*dT*dT*d[5mC]*dT*dT*eG*eG*e[5mC]*eA*eT) [compound 412206],39

# Same assay, conditions: 6.7 μM, 16 hours
row,Substance,"percent inhibition of Factor XI mRNA, relative to untreated control cells [%]"
1,412206 (antisense e[5mC]*e[5mC]*eG*eT*eG*d[5mC]*dA*dT*d[5mC]*dT*dT*dT*d[5mC]*dT*dT*eG*eG*e[5mC]*eA*eT) [compound 412206],81

# Same assay, conditions: 20 μM, 16 hours
row,Substance,"percent inhibition of Factor XI mRNA, relative to untreated control cells [%]"
1,412206 (antisense e[5mC]*e[5mC]*eG*eT*eG*d[5mC]*dA*dT*d[5mC]*dT*dT*dT*d[5mC]*dT*dT*eG*eG*e[5mC]*eA*eT) [compound 412206],94

# Test system: human Factor XI mRNA
# Test: Antisense inhibition in HepG2 cells by microwalk gapmers, 8,000 nM, electroporation (Example 14)
# Format: cell-based
# Details: HepG2 cells, 8,000 nM
# Protocol: These microwalk gapmers were tested in vitro. Cultured HepG2 cells at a density of 20,000 cells per well were transfected using electroporation with 8,000 nM antisense oligonucleotide. After a treatment period of approximately 24 hours, RNA was isolated from the cells and Factor XI mRNA levels were measured by quantitative real-time PCR. Factor XI mRNA levels were adjusted according to total RNA content, as measured by RIBOGREEN. Results are presented as percent inhibition of Factor XI, relative to untreated control cells.
# The chimeric antisense oligonucleotides in Table 51 were designed as 5-10-5 MOE, 5-8-5 and 6-8-6 MOE gapmers. The first two listed gapmers in Table 51 are the original gapmers (ISIS 416850 and ISIS 416858) from which ISIS 445493-445543 were designed via microwalk, and are designated by an asterisk. The 5-10-5 gapmers are 20 nucleotides in length, wherein the central gap segment is comprised of ten 2′-deoxynucleotides and is flanked on both sides (in the 5′ and 3′ directions) by wings comprising five nucleotides each. The 5-8-5 gapmers are 18 nucleotides in length, wherein the central gap segment is comprised of eight 2′-deoxynucleotides and is flanked on both sides (in the 5′ and 3′ directions) by wings comprising five nucleotides each. The 6-8-6 gapmers are 20 nucleotides in length, wherein the central gap segment is comprised of eight 2′-deoxynucleotides and is flanked on both sides (in the 5′ and 3′ directions) by wings comprising six nucleotides each. For each of the motifs (5-10-5, 5-8-5 and 6-8-6), each nucleotide in the 5′ wing segment and each nucleotide in the 3′ wing segment has a 2′-MOE modification. The internucleoside linkages throughout each gapmer are phosphorothioate (P═S) linkages. All cytidine residues throughout each gapmer are 5-methylcytidines. “Human Target start site” indicates the 5′-most nucleotide to which the gapmer is targeted in the human sequence. “Human Target stop site” indicates the 3′-most nucleotide to which the gapmer is targeted in the human sequence. Each gapmer listed in Table 51 is targeted to SEQ ID NO: 1 (GENBANK Accession No. NM_000128.3). Each gapmer is Table 51 is also fully cross-reactive with the rhesus monkey Factor XI gene sequence, designated herein as SEQ ID NO: 274 (exons 1-15 GENBANK Accession No. NW—001118167.1). ‘Rhesus monkey start site’ indicates the 5′-most nucleotide to which the gapmer is targeted in the rhesus monkey sequence. ‘Rhesus monkey stop site’ indicates the 3′-most nucleotide to which the gapmer is targeted to the rhesus monkey sequence.
row,Substance,Percent inhibition of human Factor XI mRNA levels [%]
1,412206 (antisense e[5mC]*e[5mC]*eG*eT*eG*d[5mC]*dA*dT*d[5mC]*dT*dT*dT*d[5mC]*dT*dT*eG*eG*e[5mC]*eA*eT) [compound 412206],91

# Test system: human Factor XI mRNA
# Test: Dose-dependent inhibition in HepG2 cells, lipofectin (Example 4)
# Format: cell-based
# Details: 9.375 nM, 16 hours
# Summary of the method: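 Read-out was percent inhibition of Factor XI mRNA relative to untreated controls, by qRT-PCR (RTS 2966) adjusted for RIBOGREEN-measured total RNA. Cells received antisense oligonucleotide at 9.375 to 75 nM (four levels) via lipofectin. Treatment lasted approximately 16 hours, with plating at 10,000 cells per well.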
row,Substance,"percent inhibition of Factor XI mRNA, relative to untreated control cells [%]"
1,412206 (antisense e[5mC]*e[5mC]*eG*eT*eG*d[5mC]*dA*dT*d[5mC]*dT*dT*dT*d[5mC]*dT*dT*eG*eG*e[5mC]*eA*eT) [compound 412206],24

# Same assay, conditions: 18.75 nM, 16 hours
row,Substance,"percent inhibition of Factor XI mRNA, relative to untreated control cells [%]"
1,412206 (antisense e[5mC]*e[5mC]*eG*eT*eG*d[5mC]*dA*dT*d[5mC]*dT*dT*dT*d[5mC]*dT*dT*eG*eG*e[5mC]*eA*eT) [compound 412206],47

# Same assay, conditions: 37.5 nM, 16 hours
row,Substance,"percent inhibition of Factor XI mRNA, relative to untreated control cells [%]"
1,412206 (antisense e[5mC]*e[5mC]*eG*eT*eG*d[5mC]*dA*dT*d[5mC]*dT*dT*dT*d[5mC]*dT*dT*eG*eG*e[5mC]*eA*eT) [compound 412206],69

# Same assay, conditions: 75 nM, 16 hours
row,Substance,"percent inhibition of Factor XI mRNA, relative to untreated control cells [%]"
1,412206 (antisense e[5mC]*e[5mC]*eG*eT*eG*d[5mC]*dA*dT*d[5mC]*dT*dT*dT*d[5mC]*dT*dT*eG*eG*e[5mC]*eA*eT) [compound 412206],86

# Reference: patent US20120083522A1, “MODULATION OF INFLAMMATORY RESPONSES BY FACTOR XI” (Isis Pharmaceuitcals, inc., priority 2009, published 2012)
